In US7964624B1, “Inhibitors of serine proteases” (priority 2005, dated 2011) one finds Ki data, which are given here for 37 molecules.

One test has as its target T1, HCV NS3 protease domain (Hepatitis C virus genotype 1b, UniProt Q9WMX2).
T1 construct: The first 181 amino acids of NS3 (residues 1027-1207 of the viral polyprotein); hexa-histidine (C); made in house; host or cells: E. coli BL21/DE3 pLysS
Put plainly: biochemical. The following applies: Enzyme Assay 1 (HCV NS3 Protease Domain Peptide Cleavage Assay) activity, apparent Ki class.

Test [1] deals with T2, full-length hepatitis C viral protein NS3•4A (Hepatitis C virus genotype 1a, UniProt P27958).
T2 construct: hexa-histidine (N); made in house; host or cells: Sf9 insect cells (baculovirus, pVL1392)
Put plainly: biochemical. Further details: species or system HCV sub-type strain 1a. The following applies: Enzyme Assay 2 (HCV NS3 Peptide Cleavage Assay) activity, apparent Ki class.

A value given as a limit tells only on which side of the number the result lay.

Take `CCC[C@H](NC(=O)[C@@H]1C[C@]2(CC(c3cccc(Cl)c3)=NO2)CN1C(=O)[C@@H](NC(=O)CC1CCC(C)CC1)C(C)(C)C)C(=O)C(=O)NC1CC1` (some centres unmarked) [Compound 361]: the values for the Ki (on HCV NS3 protease domain; in test [1]) were 100 to 500 nM and below 100 nM, respectively.

As for `CCC[C@H](NC(=O)[C@@H]1C[C@]2(CC(c3cc(C)c(OC)c(C)c3)=NO2)CN1C(=O)[C@@H](NC(=O)CC1CCCCC1)C(C)(C)C)C(=O)C(=O)NC1CC1` [Compound 362], the Ki on HCV NS3 protease domain is 100 to 500 nM; in test [1] it was below 100 nM.

As to `CCC[C@H](NC(=O)[C@@H]1C[C@]2(CC(c3cc(Cl)c(OC)cc3C)=NO2)CN1C(=O)[C@@H](NC(=O)CC1CCCCC1)C(C)(C)C)C(=O)C(=O)NC1CC1` [Compound 366], the Ki at HCV NS3 protease domain is 100 to 500 nM; in test [1] it was below 100 nM.

In the case of `CCC[C@H](NC(=O)[C@@H]1C[C@]2(CC(c3cc(Cl)c4c(c3)OCO4)=NO2)CN1C(=O)[C@@H](NC(=O)CC1CCCCC1)C(C)(C)C)C(=O)C(=O)NC1CC1` [Compound 370], the values for the Ki (on HCV NS3 protease domain; in test [1]) were 100 to 500 nM and below 100 nM, respectively.

As to `CCC[C@H](NC(=O)[C@@H]1C[C@]2(CC(c3cccc(Cl)c3)=NO2)CN1C(=O)[C@@H](NC(=O)CC1CCCCC1)C(C)(C)C)C(=O)C(=O)NC1CCCC1` [Compound 372], the Ki (on HCV NS3 protease domain; in test [1]) was 100 to 500 nM in each case.

With `CCC[C@H](NC(=O)[C@@H]1C[C@]2(CC(c3cccc(Cl)c3)=NO2)CN1C(=O)CCn1c(=O)oc2ccccc21)C(=O)C(=O)NC1CC1` [Compound 376], the Ki (on HCV NS3 protease domain; in test [1]) was above 500 nM each time.

Regarding `CCC[C@H](NC(=O)[C@@H]1C[C@]2(CC(c3cccc(Cl)c3)=NO2)CN1C(=O)[C@@H](NC(=O)[C@@H]1CCC(=O)N1Cc1cccc(Cl)c1)C(C)(C)C)C(=O)C(=O)NC1CC1` [Compound 377], the figures for the Ki (on HCV NS3 protease domain; in test [1]) were 100 to 500 nM and below 100 nM, respectively.

In the case of `C=C[C@@H]1C[C@]1(NC(=O)[C@@H]1C[C@]2(CC(c3cccc(Cl)c3)=NO2)CN1C(=O)[C@@H](NC(=O)CC1CCOCC1)C(C)(C)C)C(=O)O` [Compound 384], the Ki (on HCV NS3 protease domain; in test [1]) was above 500 nM in each case.

On to `CC(C)(C)[C@H](NC(=O)CC1CCCCC1)C(=O)N1C[C@@]2(CC(c3cccc(Cl)c3)=NO2)C[C@H]1C(=O)N[C@@H](CC1CC1)C(=O)C(N)=O` [Compound 388], for which the Ki (at HCV NS3 protease domain; in test [1]) was below 100 nM each time.

With `CCC[C@H](NC(=O)[C@@H]1C[C@]2(CC(c3cccc(Cl)c3)=NO2)CN1C(=O)CC(NS(=O)(=O)c1ccc(OC)cc1)C(C)C)C(=O)C(=O)NC1CC1` (some centres unmarked) [Compound 395], the Ki (on HCV NS3 protease domain; in test [1]) was above 500 nM throughout.

For the molecule `CCC[C@H](NC(=O)[C@@H]1C[C@]2(CC(c3cccc(Cl)c3)=NO2)CN1C(=O)CN1C(=O)OC[C@@H]1c1ccccc1)C(=O)C(=O)NC1CC1` [Compound 397], the Ki (on HCV NS3 protease domain; in test [1]) was above 500 nM in each case.

Consider `CCC[C@H](NC(=O)[C@@H]1C[C@]2(CC(c3cccc(Cl)c3)=NO2)CN1C(=O)[C@@H](NC(=O)CC1CCCCC1)C(C)(C)C)C(=O)C(=O)NC1(C(=O)OC)CC1` [Compound 399], for which the Ki (on HCV NS3 protease domain; in test [1]) was above 500 nM in each case.

Turning to `CCC[C@H](NC(=O)[C@@H]1C[C@]2(CC(c3cccc(Cl)c3)=NO2)CN1C(=O)[C@@H](NC(=O)CC1CCCCC1)C(C)(C)C)C(=O)C(=O)NC1CCC1` [Compound 401], the Ki (at HCV NS3 protease domain; in test [1]) was 100 to 500 nM throughout.

On to `CCC[C@H](NC(=O)[C@@H]1C[C@]2(CC(c3cccc(Cl)c3)=NO2)CN1C(=O)[C@@H](NC(=O)CC1CCCCC1)C(C)(C)C)C(=O)C(=O)NCCOC` [Compound 404], for which the Ki at HCV NS3 protease domain was above 500 nM; in test [1], 100 to 500 nM.

`CCC[C@H](NC(=O)[C@@H]1C[C@]2(CC(c3cccc(Cl)c3)=NO2)CN1C(=O)[C@@H](NC(=O)CC1CCCCC1)C(C)(C)C)C(=O)C(=O)NCc1cccnc1` [Compound 408]: the Ki on HCV NS3 protease domain was above 500 nM; in test [1] it was 100 to 500 nM.

Consider `CCC[C@H](NC(=O)[C@@H]1C[C@]2(CC(c3cccc(Cl)c3)=NO2)CN1C(=O)[C@@H](NC(=O)CC1CCCCC1)C(C)(C)C)C(=O)C(=O)N1CCOCC1` [Compound 410], for which the Ki (at HCV NS3 protease domain; in test [1]) was above 500 nM each time.

In the case of `CCC[C@H](NC(=O)[C@@H]1C[C@]2(CC(c3cc(F)c(OCC)c(Cl)c3)=NO2)CN1C(=O)[C@@H](NC(=O)CC1CCOCC1)C(C)(C)C)C(=O)C(=O)NC1CC1` [Compound 411], the Ki on HCV NS3 protease domain was 100 to 500 nM; in test [1], below 100 nM.

For `CCC[C@H](NC(=O)[C@@H]1CC2(CC(c3cccc(Cl)c3)=NO2)CN1C(=O)[C@H](Cc1ccc(O)cc1)NC(C)=O)C(=O)C(=O)NC1CC1` (some centres unmarked) [Compound 412], the Ki (on HCV NS3 protease domain; in test [1]) was 100 to 500 nM in each case.

Turning to `CCC[C@H](NC(=O)[C@@H]1C[C@]2(CC(c3cccc(Cl)c3)=NO2)CN1C(=O)[C@@H](NS(=O)(=O)c1ccc(Cl)cc1)C(C)CC)C(=O)C(=O)NC1CC1` (some centres unmarked) [Compound 416], the Ki was above 500 nM at HCV NS3 protease domain and 100 to 500 nM in test [1].

For `CNC(=O)C(=O)C(CC1CCC1)NC(=O)[C@@H]1C[C@]2(CC(c3cccc(Cl)c3)=NO2)CN1C(=O)[C@@H](NC(=O)CC1CCOC(C)(C)C1)C(C)(C)C` (some centres unmarked) [Compound 419], the Ki (at HCV NS3 protease domain; in test [1]) was 100 to 500 nM throughout.

As for `CCC[C@H](NC(=O)[C@@H]1C[C@]2(CC(c3cccc(Cl)c3)=NO2)CN1C(=O)c1[nH]c2ccccc2c1CC(=O)N(CC)CC)C(=O)C(=O)NC1CC1` [Compound 420], the Ki (at HCV NS3 protease domain; in test [1]) was above 500 nM throughout.

On to `CCC[C@H](NC(=O)[C@@H]1C[C@]2(CC(c3cccc(Cl)c3)=NO2)CN1C(=O)[C@@H](NC(=O)CC1CCCCC1)C(C)(C)C)C(=O)C(=O)N1CC(C)(O)C1` [Compound 426], for which the values for the Ki (on HCV NS3 protease domain; in test [1]) were above 500 nM and 100 to 500 nM, respectively.

As to `CCC[C@H](NC(=O)[C@@H]1C[C@]2(CC(c3cccc(Cl)c3)=NO2)CN1C(=O)[C@@H](NC(=O)CC1CCCCC1)C(C)(C)C)C(=O)C(=O)NC1(c2ccccc2)CC1` [Compound 429], the Ki (at HCV NS3 protease domain; in test [1]) was above 500 nM in each case.

In the case of `CCC[C@H](NC(=O)[C@@H]1C[C@]2(CC(c3cc(Cl)c4c(c3)CCCN4C)=NO2)CN1C(=O)[C@@H](NC(=O)CC1CCCCC1)C(C)(C)C)C(=O)C(=O)NC1CC1` [Compound 430], the results for the Ki (at HCV NS3 protease domain; in test [1]) were 100 to 500 nM and below 100 nM, respectively.

Regarding `CCC[C@H](NC(=O)[C@@H]1C[C@]2(CC(c3cccc(Cl)c3)=NO2)CN1C(=O)[C@@H](NC(=O)CC1CCCCC1)C(C)(C)C)C(=O)C(=O)NCc1cc(-c2ccc(Cl)cc2)no1` [Compound 433], the Ki (at HCV NS3 protease domain; in test [1]) was above 500 nM throughout.

In the case of `CCC[C@H](NC(=O)[C@@H]1C[C@]2(CC(c3cccc(Cl)c3)=NO2)CN1C(=O)[C@H](CSC(C)(C)C)NC(=O)CC1CCCCC1)C(=O)C(=O)NC1CC1` [Compound 437], the Ki (at HCV NS3 protease domain; in test [1]) was above 500 nM in each case.

With `C=C[C@@H]1C[C@]1(NC(=O)[C@@H]1C[C@]2(CC(CC)=NO2)CN1C(=O)[C@@H](NC(=O)OC1CCCC1)C(C)(C)C)C(=O)NS(=O)(=O)C1CC1` [Compound 438], the figures for the Ki (on HCV NS3 protease domain; in test [1]) were above 500 nM and 100 to 500 nM, respectively.

On to `C=C[C@@H]1C[C@]1(NC(=O)[C@@H]1C[C@]2(CC(c3cccc(Cl)c3)=NO2)CN1C(=O)[C@@H](NC(=O)OC(C)(C)C)C(C)(C)C)C(=O)O` [Compound 439], for which the Ki (at HCV NS3 protease domain; in test [1]) was above 500 nM each time.

Consider `CCC[C@H](NC(=O)[C@@H]1C[C@]2(CC(c3cccc(Cl)c3)=NO2)CN1C(=O)[C@@H](NC(=O)CC1CCCCC1)C(C)(C)C)C(=O)C(=O)NCc1ccco1` [Compound 441], for which the Ki is above 500 nM on HCV NS3 protease domain and 100 to 500 nM in test [1].

For the molecule `CCC[C@H](NC(=O)[C@@H]1C[C@]2(CC(c3cccc(Cl)c3)=NO2)CN1C(=O)[C@@H](NC(=O)CC1C[C@@H](C)O[C@@H](C)C1)C(C)(C)C)C(=O)C(=O)NC1CC1` (some centres unmarked) [Compound 442], the Ki is 100 to 500 nM on HCV NS3 protease domain and below 100 nM in test [1].

In the case of `C=C[C@@H]1C[C@]1(NC(=O)[C@@H]1C[C@]2(CC(c3cccc(Cl)c3)=NO2)CN1C(=O)[C@@H](NC(=O)OC1CCCC1)C(C)(C)C)C(=O)O` [Compound 443], the Ki (on HCV NS3 protease domain; in test [1]) was above 500 nM each time.

In the case of `CCC[C@H](NC(=O)[C@@H]1C[C@]2(CC(c3cccc(Cl)c3)=NO2)CN1C(=O)[C@@H](NC(=O)CC1CCC2(CC1)OCCO2)C(C)(C)C)C(=O)C(=O)NC1CC1` [Compound 445], the Ki is 100 to 500 nM at HCV NS3 protease domain and below 100 nM in test [1].

For `CCC[C@H](NC(=O)[C@@H]1C[C@]2(CC(c3cccc(Cl)c3)=NO2)CN1C(=O)[C@@H](NC(=O)CC1CCCCC1)C(C)(C)C)C(=O)C(=O)NCCc1cccnc1` [Compound 447], the Ki on HCV NS3 protease domain was above 500 nM; in test [1] it was 100 to 500 nM.

Regarding `CCC[C@H](NC(=O)[C@@H]1C[C@]2(CC(c3cccc(Cl)c3)=NO2)CN1C(=O)[C@@H](NC(=O)CC1CCCCC1)C(C)(C)C)C(=O)C(=O)N[C@H](C)CC` [Compound 452], the Ki at HCV NS3 protease domain is above 500 nM; in test [1], 100 to 500 nM.

`C=C[C@@H]1C[C@]1(NC(=O)[C@@H]1C[C@]2(CC(c3cccc(Cl)c3)=NO2)CN1C(=O)[C@@H](NC(=O)NC(C)(C)C)C(C)(C)C)C(=O)O` [Compound 457]: the Ki (at HCV NS3 protease domain; in test [1]) was above 500 nM throughout.

On to `CCC[C@H](NC(=O)[C@@H]1C[C@]2(CC(c3cccc(Cl)c3)=NO2)CN1C(=O)[C@@H](NC(=O)CC1CCCCC1)C(C)(C)C)C(=O)C(=O)NCCC1C(=O)Nc2ccccc21` (some centres unmarked) [Compound 458], for which the Ki (on HCV NS3 protease domain; in test [1]) was above 500 nM in each case.

As to `CCCC[C@H](NC(=O)CC1CCCCC1)C(=O)N1C[C@@]2(CC(c3cccc(Cl)c3)=NO2)C[C@H]1C(=O)N[C@@H](CCC)C(=O)C(=O)NC1CC1` [Compound 459], the results for the Ki (at HCV NS3 protease domain; in test [1]) were above 500 nM and 100 to 500 nM, respectively.
